Source: ChEMBL document CHEMBL4507291 (2021)

Experiments:
[1] = biological target: Tyrosine-protein kinase BTK (Homo sapiens) (UniProt Q06187); assay: BTK Kinase screen; conditions: Compound concentration 1.0 uM
[2] = biological target: Vascular endothelial growth factor receptor 2 (Homo sapiens) (UniProt P35968); assay: KDR (VEGFR2) Kinase screen; conditions: Compound concentration 1.0 uM
[3] = biological target: T1, Mitogen-activated protein kinase kinase kinase 5 (Homo sapiens) (UniProt Q99683); assay: MAP3K5 (ASK1) Kinase screen; conditions: Compound concentration 1.0 uM
T1 sequence (whole entry): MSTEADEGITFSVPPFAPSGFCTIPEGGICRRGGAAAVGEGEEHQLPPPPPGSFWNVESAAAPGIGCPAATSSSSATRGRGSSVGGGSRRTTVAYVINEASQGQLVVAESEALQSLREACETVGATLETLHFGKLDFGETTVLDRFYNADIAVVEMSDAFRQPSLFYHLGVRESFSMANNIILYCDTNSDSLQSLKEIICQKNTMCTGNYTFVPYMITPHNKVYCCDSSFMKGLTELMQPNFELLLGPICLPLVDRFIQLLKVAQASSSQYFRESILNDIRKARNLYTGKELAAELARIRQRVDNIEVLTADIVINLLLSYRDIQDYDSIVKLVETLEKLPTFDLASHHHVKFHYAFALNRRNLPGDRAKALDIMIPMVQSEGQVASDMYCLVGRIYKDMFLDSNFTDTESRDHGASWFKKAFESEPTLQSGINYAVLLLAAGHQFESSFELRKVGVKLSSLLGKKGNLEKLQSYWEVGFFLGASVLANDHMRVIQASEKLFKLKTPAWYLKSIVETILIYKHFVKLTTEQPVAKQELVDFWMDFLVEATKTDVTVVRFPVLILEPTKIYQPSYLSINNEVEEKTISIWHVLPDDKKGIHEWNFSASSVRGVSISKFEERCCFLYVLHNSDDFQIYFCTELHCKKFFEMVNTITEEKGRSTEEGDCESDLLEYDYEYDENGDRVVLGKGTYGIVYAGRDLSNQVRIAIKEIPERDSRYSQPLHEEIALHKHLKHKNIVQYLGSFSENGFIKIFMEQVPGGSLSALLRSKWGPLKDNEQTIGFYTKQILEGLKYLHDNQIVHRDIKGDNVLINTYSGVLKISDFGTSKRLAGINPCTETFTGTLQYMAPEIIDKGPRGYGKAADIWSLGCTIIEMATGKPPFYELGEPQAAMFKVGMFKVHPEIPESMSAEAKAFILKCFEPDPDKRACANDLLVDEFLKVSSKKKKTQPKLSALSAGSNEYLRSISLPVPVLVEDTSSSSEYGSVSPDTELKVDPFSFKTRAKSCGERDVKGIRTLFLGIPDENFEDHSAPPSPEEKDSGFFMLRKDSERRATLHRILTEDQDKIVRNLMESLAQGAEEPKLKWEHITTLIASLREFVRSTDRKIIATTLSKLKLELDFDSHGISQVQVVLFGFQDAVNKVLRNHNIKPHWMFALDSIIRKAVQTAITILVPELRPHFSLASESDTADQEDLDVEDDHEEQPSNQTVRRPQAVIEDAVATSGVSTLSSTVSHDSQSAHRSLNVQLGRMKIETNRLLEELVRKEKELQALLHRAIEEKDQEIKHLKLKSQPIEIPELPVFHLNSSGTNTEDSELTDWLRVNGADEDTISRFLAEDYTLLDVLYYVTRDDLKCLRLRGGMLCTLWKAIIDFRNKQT

[4] = biological target: T2, Alpha-1D adrenergic receptor (Homo sapiens) (UniProt P25100); assay: Inhibition of Adrenergic alpha1D at 10 µM in the Eurofins-Panlabs radioligand binding assay (Eurofins_assay_203400); conditions: Compound concentration 10.0 uM
T2 sequence (whole entry): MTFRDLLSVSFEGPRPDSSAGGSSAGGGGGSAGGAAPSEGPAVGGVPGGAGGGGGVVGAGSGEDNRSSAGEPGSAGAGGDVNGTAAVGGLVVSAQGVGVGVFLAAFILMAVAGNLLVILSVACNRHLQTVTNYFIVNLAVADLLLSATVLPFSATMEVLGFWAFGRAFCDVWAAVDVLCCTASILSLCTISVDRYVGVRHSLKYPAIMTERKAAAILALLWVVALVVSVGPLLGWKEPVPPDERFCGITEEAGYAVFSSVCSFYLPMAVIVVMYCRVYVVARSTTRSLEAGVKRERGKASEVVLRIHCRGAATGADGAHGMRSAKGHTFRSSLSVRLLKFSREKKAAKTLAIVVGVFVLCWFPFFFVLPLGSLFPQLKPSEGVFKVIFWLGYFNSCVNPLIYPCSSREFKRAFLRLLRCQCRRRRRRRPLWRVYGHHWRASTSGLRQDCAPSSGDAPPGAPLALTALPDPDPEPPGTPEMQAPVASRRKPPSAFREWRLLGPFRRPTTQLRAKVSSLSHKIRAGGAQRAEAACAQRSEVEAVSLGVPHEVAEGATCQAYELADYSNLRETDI

[5] = biological target: T3, G protein-coupled receptor kinase 3 (Homo sapiens) (UniProt P35626); assay: ADRBK2 (GRK3) Kinase screen; conditions: Compound concentration 1.0 uM
T3 sequence (whole entry): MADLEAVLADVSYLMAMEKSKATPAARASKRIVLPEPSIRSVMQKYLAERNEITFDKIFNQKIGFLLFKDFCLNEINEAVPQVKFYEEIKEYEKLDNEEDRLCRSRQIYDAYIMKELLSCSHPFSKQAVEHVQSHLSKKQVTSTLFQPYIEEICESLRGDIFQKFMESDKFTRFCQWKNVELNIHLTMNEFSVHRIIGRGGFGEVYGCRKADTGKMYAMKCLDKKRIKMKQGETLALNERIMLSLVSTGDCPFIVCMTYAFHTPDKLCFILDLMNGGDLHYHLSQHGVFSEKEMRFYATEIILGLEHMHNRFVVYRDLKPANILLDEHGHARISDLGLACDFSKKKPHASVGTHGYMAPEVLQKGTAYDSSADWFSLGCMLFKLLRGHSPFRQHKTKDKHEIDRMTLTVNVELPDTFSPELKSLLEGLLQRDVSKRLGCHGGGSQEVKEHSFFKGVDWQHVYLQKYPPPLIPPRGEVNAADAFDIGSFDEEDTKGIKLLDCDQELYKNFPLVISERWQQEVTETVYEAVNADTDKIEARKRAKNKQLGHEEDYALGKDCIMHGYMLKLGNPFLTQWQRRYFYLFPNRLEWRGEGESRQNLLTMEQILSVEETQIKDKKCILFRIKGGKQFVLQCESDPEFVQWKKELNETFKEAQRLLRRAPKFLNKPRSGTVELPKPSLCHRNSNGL

[6] = biological target: MAO-B (amine oxidase [flavin-containing] B) (Homo sapiens, UniProt P27338); assay: Inhibition of Monoamine Oxidase MAO-B at compound concentration of 10.0 uM in the Eurofins-Panlabs enzyme assay (Eurofins_assay_140120); parameters: substrate with concentration 50 uM Kynuramine, incubation time 60 min, incubation temperature 37 C; conditions: recombinant human MAO-B expressed in insect Hi5 cells, probe kynuramine (50 uM), compound concentration 10 uM
[7] = biological target: Mu-type opioid receptor (Homo sapiens) (UniProt P35372); conditions: Compound concentration 10.0 uM
Mu-type opioid receptor (Homo sapiens), sequence (P35372 whole entry): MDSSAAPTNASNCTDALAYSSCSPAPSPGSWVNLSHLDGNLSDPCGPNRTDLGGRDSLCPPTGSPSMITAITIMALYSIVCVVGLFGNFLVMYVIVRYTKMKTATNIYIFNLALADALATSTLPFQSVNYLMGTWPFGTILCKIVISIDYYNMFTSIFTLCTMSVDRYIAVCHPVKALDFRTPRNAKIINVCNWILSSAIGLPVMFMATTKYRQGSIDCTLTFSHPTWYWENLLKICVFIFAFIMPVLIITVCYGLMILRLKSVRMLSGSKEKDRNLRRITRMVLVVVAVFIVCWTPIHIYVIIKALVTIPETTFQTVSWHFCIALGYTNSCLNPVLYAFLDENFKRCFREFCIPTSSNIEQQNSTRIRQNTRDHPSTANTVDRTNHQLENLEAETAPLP

MAO-B (amine oxidase [flavin-containing] B), sequence (P27338 whole entry): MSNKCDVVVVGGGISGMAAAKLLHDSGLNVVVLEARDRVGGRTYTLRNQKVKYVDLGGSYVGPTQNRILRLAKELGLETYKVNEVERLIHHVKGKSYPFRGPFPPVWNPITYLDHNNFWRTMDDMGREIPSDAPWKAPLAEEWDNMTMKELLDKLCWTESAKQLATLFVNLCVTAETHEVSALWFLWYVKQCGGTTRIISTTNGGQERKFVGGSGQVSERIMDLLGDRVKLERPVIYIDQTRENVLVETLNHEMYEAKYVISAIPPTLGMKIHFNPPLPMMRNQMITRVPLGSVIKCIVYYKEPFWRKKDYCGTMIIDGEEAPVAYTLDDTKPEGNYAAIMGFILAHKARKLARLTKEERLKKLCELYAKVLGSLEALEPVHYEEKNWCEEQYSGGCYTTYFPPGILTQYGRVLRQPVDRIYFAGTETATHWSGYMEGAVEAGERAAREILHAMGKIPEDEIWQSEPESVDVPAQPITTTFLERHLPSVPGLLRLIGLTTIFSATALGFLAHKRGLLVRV
Vascular endothelial growth factor receptor 2 (Homo sapiens), sequence (P35968 whole entry): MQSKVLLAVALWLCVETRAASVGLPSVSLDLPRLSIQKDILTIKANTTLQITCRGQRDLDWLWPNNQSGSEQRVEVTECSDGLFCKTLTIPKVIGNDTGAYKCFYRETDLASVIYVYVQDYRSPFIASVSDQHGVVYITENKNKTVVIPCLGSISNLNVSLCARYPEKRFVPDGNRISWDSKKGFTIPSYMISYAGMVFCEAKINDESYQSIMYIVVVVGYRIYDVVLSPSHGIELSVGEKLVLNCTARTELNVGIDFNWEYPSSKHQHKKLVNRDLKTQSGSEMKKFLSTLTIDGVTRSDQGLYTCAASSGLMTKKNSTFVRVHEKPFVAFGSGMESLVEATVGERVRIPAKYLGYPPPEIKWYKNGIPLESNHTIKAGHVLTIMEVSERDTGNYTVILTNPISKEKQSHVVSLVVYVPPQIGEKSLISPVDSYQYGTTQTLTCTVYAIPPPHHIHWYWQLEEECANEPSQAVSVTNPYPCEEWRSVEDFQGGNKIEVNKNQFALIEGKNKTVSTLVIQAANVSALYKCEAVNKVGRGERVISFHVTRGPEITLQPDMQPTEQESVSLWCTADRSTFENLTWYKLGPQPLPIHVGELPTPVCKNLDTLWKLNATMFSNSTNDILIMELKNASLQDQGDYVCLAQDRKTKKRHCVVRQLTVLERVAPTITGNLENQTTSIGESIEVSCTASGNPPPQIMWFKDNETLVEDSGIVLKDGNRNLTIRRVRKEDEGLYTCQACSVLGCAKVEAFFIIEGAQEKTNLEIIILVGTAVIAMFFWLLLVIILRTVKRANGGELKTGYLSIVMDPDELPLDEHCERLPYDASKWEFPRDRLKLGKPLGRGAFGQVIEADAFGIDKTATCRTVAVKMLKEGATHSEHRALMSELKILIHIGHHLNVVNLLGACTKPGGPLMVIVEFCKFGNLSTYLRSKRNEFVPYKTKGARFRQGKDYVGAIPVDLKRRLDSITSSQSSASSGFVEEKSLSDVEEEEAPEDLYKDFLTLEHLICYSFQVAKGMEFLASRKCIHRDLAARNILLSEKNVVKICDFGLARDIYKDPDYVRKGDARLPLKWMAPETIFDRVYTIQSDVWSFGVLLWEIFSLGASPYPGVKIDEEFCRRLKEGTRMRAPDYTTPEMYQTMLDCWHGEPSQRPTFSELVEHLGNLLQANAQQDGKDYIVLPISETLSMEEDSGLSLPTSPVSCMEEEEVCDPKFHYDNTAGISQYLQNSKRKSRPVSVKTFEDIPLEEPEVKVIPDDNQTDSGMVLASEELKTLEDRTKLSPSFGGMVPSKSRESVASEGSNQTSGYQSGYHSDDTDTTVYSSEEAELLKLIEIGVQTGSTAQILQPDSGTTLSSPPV
Tyrosine-protein kinase BTK (Homo sapiens), sequence (Q06187 whole entry): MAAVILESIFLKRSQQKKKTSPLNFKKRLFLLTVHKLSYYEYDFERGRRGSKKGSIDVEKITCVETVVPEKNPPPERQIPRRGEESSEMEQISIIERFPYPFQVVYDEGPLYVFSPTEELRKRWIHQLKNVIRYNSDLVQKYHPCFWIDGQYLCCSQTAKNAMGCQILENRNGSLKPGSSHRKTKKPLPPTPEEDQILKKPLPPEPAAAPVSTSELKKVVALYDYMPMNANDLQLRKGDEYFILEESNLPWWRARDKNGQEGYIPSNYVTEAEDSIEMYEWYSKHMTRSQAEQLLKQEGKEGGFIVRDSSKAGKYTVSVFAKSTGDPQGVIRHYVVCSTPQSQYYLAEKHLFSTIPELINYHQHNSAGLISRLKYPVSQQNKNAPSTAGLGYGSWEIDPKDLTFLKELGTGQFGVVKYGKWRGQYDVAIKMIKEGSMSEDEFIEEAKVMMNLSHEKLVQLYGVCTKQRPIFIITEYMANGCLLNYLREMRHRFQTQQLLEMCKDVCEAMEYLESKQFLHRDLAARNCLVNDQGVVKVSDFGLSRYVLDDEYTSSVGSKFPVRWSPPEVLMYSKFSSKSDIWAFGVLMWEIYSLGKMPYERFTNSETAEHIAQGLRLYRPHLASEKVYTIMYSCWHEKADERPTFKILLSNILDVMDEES

SMILES	inhibition [1]	inhibition [2]	inhibition [3]	inhibition [4]	inhibition [5]	inhibition at 60 min, 10 µM [6]	inhibition [7]
C[C@@H]1CN(c2cc(-c3n[nH]c4ccc(OC5(C)CC5)cc34)ncn2)C[C@H](C)O1 [MLi-2]	4.5%	3.64%	71.9%	1%	-0.166%	28% (not active)	–
C[C@@H]1CN(c2cc(-c3nn(C)c4ccc(OC5(C)CC5)cc34)ncn2)C[C@H](C)O1 [MLi-2-NC]	–	–	–	–	–	–	13.2%
